Test results: PMC10386514, “Cyclodextrin’s Effect on Permeability and Partition of Nortriptyline Hydrochloride” (Pharmaceuticals, 2023)
Where a name gives a salt, the structure may show the parent alone. Read-outs that look alike come from different tables or passages of the source.

Tests used:
[1] = design: method as in doi:10.1016/j.molliq.2022.120801; details: RC vs PP; cited from earlier work
[2] = RC vs PP, no CD
Procedure: The permeability coefficients of NTT•HCl were determined in the absence and in the presence of cyclodextrins (HP-β-CD and SBE-β-CD) in the donor solution. A model artificial regenerated cellulose membrane MWCO 12–14 kDa (Standard Grade RC Dialysis Membrane, Flat Width 45 mm) (RC) or a biomimetic PermeaPad barrier (PHABIOC, Germany, www.permeapad.com (accessed on 1 February 2023)) (PP) were placed between the donor and receptor compartments of a vertical type Franz diffusion cell (PermeGear, Inc., Hellertown, PA, USA) with 7 mL/1 mL volumes for the donor and acceptor solutions. The cyclodextrin concentrations were 0.0115 M, 0.025 M and 0.035 M when the RC membrane was used and only 0.035 M in case of the PP barrier. Two different pH values (pH of 4.0 and pH of 6.8) were applied in the donor solution, whereas the receptor chamber was filled with a buffer with a pH of 7.4, modeling the compound’s diffusion to the blood plasma in all the experiments. […] Samples with a volume of 0.5 mL for the receptor solution were withdrawn every 30 min for 5 h and analyzed with a spectrophotometer (Spectramax 190; Molecular Devices Corporation, San Jose, CA, USA) in 96-well UV black plates (Costar, Washington, DC, USA) at a wavelength of 239 nm.
The permeability coefficient was calculated using the NTT•HCl concentration in the donor solution (C0), as follows:(7) Papp=J/C0

[3] = cited from earlier work
[4] = human epidermis, buffer pH of 7.4; cited from earlier work
[5] = epidermis (ref 18) vs PermeaPad, no CD
[6] = 37 °C
Procedure: The ∆logD parameter of Seiler was calculated for a single CD concentration in the aqueous phase, equal to 0.0115 M for both HP-β-CD and SBE-β-CD, as follows:(2) ΔlogD=logDappoct/buf−logDapphex/buf

[7] = Text: To this end, the phase distribution approach fully described in [17] was applied. […] It is evident that, in the presence of cyclodextrins, the distribution coefficient of the compound can be described by the following equation:(3) DappOrg/(buf+CD)=C2Org(drug)/C2buf(drug)+C2buf(drug•CD) where DappOrg/(buf+CD) is the distribution coefficient of the drug in the presence of CD, C2Org and C2buf are the drug concentrations in the organic and aqueous phases, respectively, and C2buf(drug•CD) is the concentration of the drug/cyclodextrin complex in the aqueous phase of the distribution system. As follows from Equation (3), the association constant of the complex can be derived from DappOrg/buf and DappOrg/(buf+CD) at specific CD concentrations using Equation (4). (4) DappOrg/(buf+CD)/DappOrg/buf=1+KC⋅CCD
It can be performed by plotting the following dependence:(5) log(DappOrg/buf−DappOrg/(buf+CD)/DappOrg/buf)=log(KC)+α⋅log(CCD)

[8] = for distribution coefficient lower than that of AMT•HCl: AMT•HCl values from ref 14; for distribution coefficient higher at buffer pH of 6.8 than at pH of 4.0: no CD; for Dapp hex/buf / Dapp oct/buf / logDapp hex/buf / logDapp oct/buf: 37 °C
Procedure: The apparent distribution coefficients of NTT•HCl ( DappOrg/buf ) in the 1-octanol/buffer ( Dappoct/buf ) and n-hexane/buffer ( Dapphex/buf ) systems were measured at 37 °C via the standard shake-flask method using mutually saturated organic and aqueous solvents, as reported in our earlier studies. The experimental procedure was partially modified in the case of cyclodextrins (both HP-β-CD and SBE-β-CD) in the aqueous phase of the distribution system. Following the respective literature, in the present study, we prepared 1-octanol or n-hexane saturated with a buffer and a buffer saturated with 1-octanol and n-hexane. Three cyclodextrin concentrations (0.0115 M, 0.025 M and 0.035 M) in the aqueous phase were introduced. For the 1-octanol/buffer distribution, the examined solution of NTT•HCl was prepared in 1-octanol saturated with a buffer (C ~ 2 × 10^−3 M), whereas for the n-hexane/buffer system, it was prepared in a buffer saturated with n-hexane (C ~ 2 × 10^−3 M). Taking into account the obtained values of NTT•HCl solubility in the organic solvents and aqueous buffers, equal volumes of the 1-octanolic and buffer phases were prepared, whereas the n-hexane/buffer ratio was 12:2. Two pH values of the aqueous phases were examined: a pH of 4.0 and a pH of 6.8, simulating different segments of the gastro-intestinal tract. The respective volumes of the phases were placed into glass vials and equilibrated in an air thermostat for 3 days at 37 °C. Then, the phases were separated after at least 6 h of storage. The concentrations in both phases were measured using a UV–Vis spectrophotometer (Cary-50, USA Cary-50 Varian, Palo Alto, CA, USA, Software Version 3.00 (339)) with the help of the calibration curves. Each distribution test was carried out at least three times.
The distribution coefficients ( DappOrg/buf ) were determined, taking into account the compound concentrations in the organic ( C2Org ) and buffer ( C2buf ) phases and the volumes of the buffer ( Vbuf ) and organic ( VOrg ) phases:(1) DappOrg/buf=C2Org⋅V^buf/C2buf⋅V^Org

CN(C)CCC=C1c2ccccc2CCc2ccccc21.Cl [AMT•HCl, amitryptiline hydrochloride]
difference between the coefficients of permeability through the PP and RC [1]: 4.0 fold

CNCCC=C1c2ccccc2CCc2ccccc21 [NTT•HCl, Nortriptyline hydrochloride]
difference between the coefficients of permeability through the PP and RC [2]: 1.6 fold | pKa [3]: 9.23 | coefficient of permeability through epidermis [4]: 0.36 × 10^−6 | greater resistance of the epidermis than that of the PermeaPad barrier [5]: 67 fold | ∆logD ([6]; pH 4.0, 0.0115 M HP-β-CD): 1.82 | ∆logD ([6]; pH 4.0, 0.0115 M SBE-β-CD): 1.79 | ∆logD ([6]; pH 4.0, no CD): 2.85 | ∆logD ([6]; pH 6.8, 0.0115 M HP-β-CD): 2.48 | ∆logD ([6]; pH 6.8, 0.0115 M SBE-β-CD): 2.23 | ∆logD ([6]; pH 6.8, no CD): 2.76 | KC, association constant of the NTT•HCl/cyclodextrin complex ([7]; HP-β-CD, aqueous phase pH of 4.0, 37 °C): 1.13 ± 0.02 M⁻¹ | KC, association constant of the NTT•HCl/cyclodextrin complex ([7]; HP-β-CD, aqueous phase pH of 6.8, 37 °C): 2.01 ± 0.05 M⁻¹ | KC, association constant of the NTT•HCl/cyclodextrin complex ([7]; SBE-β-CD, aqueous phase pH of 4.0, 37 °C): 1.14 ± 0.02 M⁻¹ | KC, association constant of the NTT•HCl/cyclodextrin complex ([7]; SBE-β-CD, aqueous phase pH of 6.8, 37 °C): 2.24 ± 0.03 M⁻¹ | distribution coefficient lower than that of AMT•HCl ([8]; 1-octanol/buffer pH of 4.0): 7 fold | distribution coefficient lower than that of AMT•HCl ([8]; 1-octanol/buffer pH of 6.8): 13 fold | distribution coefficient higher at buffer pH of 6.8 than at pH of 4.0 ([8]; 1-octanol/buffer): 1.33 fold | distribution coefficient higher at buffer pH of 6.8 than at pH of 4.0 ([8]; n-hexane/buffer): 1.61 fold | Dapp hex/buf ([8]; pH 4.0, 0.0115 M HP-β-CD): (4.6 ± 0.1) × 10^−3 | Dapp oct/buf ([8]; pH 4.0, 0.0115 M HP-β-CD): 0.299 ± 0.008 | logDapp hex/buf ([8]; pH 4.0, 0.0115 M HP-β-CD): −2.34 | logDapp oct/buf ([8]; pH 4.0, 0.0115 M HP-β-CD): −0.52 | Dapp hex/buf ([8]; pH 4.0, 0.0115 M SBE-β-CD): (3.3 ± 0.1) × 10^−3 | Dapp oct/buf ([8]; pH 4.0, 0.0115 M SBE-β-CD): 0.204 ± 0.005 | logDapp hex/buf ([8]; pH 4.0, 0.0115 M SBE-β-CD): −2.48 | logDapp oct/buf ([8]; pH 4.0, 0.0115 M SBE-β-CD): −0.69 | Dapp oct/buf ([8]; pH 4.0, 0.025 M HP-β-CD): 0.154 ± 0.003 | logDapp oct/buf ([8]; pH 4.0, 0.025 M HP-β-CD): −0.81 | Dapp oct/buf ([8]; pH 4.0, 0.025 M SBE-β-CD): 0.086 ± 0.001 | logDapp oct/buf ([8]; pH 4.0, 0.025 M SBE-β-CD): −1.07 | Dapp oct/buf ([8]; pH 4.0, 0.035 M HP-β-CD): 0.101 ± 0.001 | logDapp oct/buf ([8]; pH 4.0, 0.035 M HP-β-CD): −1.0 | Dapp oct/buf ([8]; pH 4.0, 0.035 M SBE-β-CD): 0.013 ± 0.000 | logDapp oct/buf ([8]; pH 4.0, 0.035 M SBE-β-CD): −1.89 | Dapp hex/buf ([8]; pH 4.0, no CD): (5.6 ± 0.2) × 10^−3 | Dapp oct/buf ([8]; pH 4.0, no CD): 4.159 ± 0.080 | logDapp hex/buf ([8]; pH 4.0, no CD): −2.23 | logDapp oct/buf ([8]; pH 4.0, no CD): 0.62 | Dapp hex/buf ([8]; pH 6.8, 0.0115 M HP-β-CD): (8.7 ± 0.1) × 10^−3 | Dapp oct/buf ([8]; pH 6.8, 0.0115 M HP-β-CD): 2.613 ± 0.022 | logDapp hex/buf ([8]; pH 6.8, 0.0115 M HP-β-CD): −2.06 | logDapp oct/buf ([8]; pH 6.8, 0.0115 M HP-β-CD): 0.42 | Dapp hex/buf ([8]; pH 6.8, 0.0115 M SBE-β-CD): (8.6 ± 0.3) × 10^−3 | Dapp oct/buf ([8]; pH 6.8, 0.0115 M SBE-β-CD): 1.443 ± 0.040 | logDapp hex/buf ([8]; pH 6.8, 0.0115 M SBE-β-CD): −2.07 | logDapp oct/buf ([8]; pH 6.8, 0.0115 M SBE-β-CD): 0.16 | Dapp oct/buf ([8]; pH 6.8, 0.025 M HP-β-CD): 1.993 ± 0.030 | logDapp oct/buf ([8]; pH 6.8, 0.025 M HP-β-CD): 0.30 | Dapp oct/buf ([8]; pH 6.8, 0.025 M SBE-β-CD): 0.364 ± 0.011 | logDapp oct/buf ([8]; pH 6.8, 0.025 M SBE-β-CD): −0.44 | Dapp oct/buf ([8]; pH 6.8, 0.035 M HP-β-CD): 1.395 ± 0.025 | logDapp oct/buf ([8]; pH 6.8, 0.035 M HP-β-CD): 0.15 | Dapp oct/buf ([8]; pH 6.8, 0.035 M SBE-β-CD): 0.227 ± 0.006 | logDapp oct/buf ([8]; pH 6.8, 0.035 M SBE-β-CD): −0.64 | Dapp hex/buf ([8]; pH 6.8, no CD): (9.5 ± 0.2) × 10^−3 | Dapp oct/buf ([8]; pH 6.8, no CD): 5.537 ± 0.111 | logDapp hex/buf ([8]; pH 6.8, no CD): −2.02 | logDapp oct/buf ([8]; pH 6.8, no CD): 0.74
